Reference: patent publication US10828262B2, “Biomembrane, closed structure with biomembrane characteristics or cellular compartment derived from natural sources and/or self-assembly techniques, preparation method and applications thereof” (priority 2017, dated 2020)

What was measured:
[1] = Body weight of tumor model mice; assay type: in vivo, BALB/C nude mouse; settings: BEL-7402 model nude mice
Source text: (§1) • (1) Inoculate human hepatoma cell line BEL-7402 below back skin of BALB/C nude mouse.

[2] = system: human hepatoma cell line BEL-7402; settings: BALB/C nude mouse
Source text: as §1

[3] = In vivo half-life period of calcitonin after vein injection; design: species or system new zealand white rabbit; settings: rabbit, injection through vein
[4] = 0.2 ml intraperitoneal injection every day, after 10 d

## COc1cccc2c1C(=O)c1c(O)c3c(c(O)c1C2=O)C[C@@](O)(C(=O)CO)C[C@@H]3O[C@H]1C[C@H](N)[C@H](O)[C@H](C)O1 [Adriamycin amycin, adriamycin]
[1]
  Weight Before treatment: 20.03 g
[1]; [4]
  Weight After treatment: 20.1 g
[2]; [4]
  Tumor After treatment: 50.17 mm^3
[2]; liver-implanted tumor
  Tumor Before treatment: 42.93 mm^3

## calcitonin [ordinary calcitonin]
[3]
  in vivo half-life period: 2 h
